Source: patent US20140329776A1, “Mitochondria-Targeted Antioxidants for Treatment of Age-Related Brain Disorders” (MITOTECH S.A., priority 2011, published 2014)

Assays:
[1] = system: hippocampal slice neurons; assay: long-term potentiation (LTP) of hippocampal slices treated with Aβ after in vivo treatment; parameters: species or system rat
Method: FIG. 3B is a graphic representation showing the LTP caused by in vitro addition of Aβ, where the decay of LTP of hippocampal slice neurons characterized by a decrease of pop-spike amplitude (%) in a hippocampal slice treated with Aβ.
SkQR1 Aβ was added 15 min before the LTP induction with high-frequency electric stimulation (arrow). The decay of LTP (i.e. decrease of pop-spike amplitude) in a hippocampal slice treated with Aβ can be prevented by SkQR1 treatment.
FIG. 16 is a bar graph comparing the neuroprotective effects of preferred SkQ mitochondria-targeted antioxidants of the invention when administered in vivo in a model of Alzheimer disease.
As a model of cell memory, an electric response of a hippocampal slice (long-term potentiation, LTP) was used (Malenka, et al., Science 285:1870-1874 (1999)). A direct experiment was performed showing the prevention of Aβ toxicity in hippocampus by in vivo treatment of rats with 1 μmol SkQR1 per kg of body weight. The compound was injected intraperitoneally into the animal 24 hours before hippocampal slices were obtained to measure LTP. Some slices were pretreated with Aβ for 15 minutes. As is seen in FIG. 3B, Aβ impaired LTP relative to untreated control.
FIG. 16 provides a comparison of the neuroprotective effects of SkQ1, SkQR1 and C12TPP based on the LTP signal in neurons of hippocampal slices. Ab stands for beta-amyloid treatment. […] All SkQs and C12TPP were administered in vivo to rats prior the extraction of hippocampus.

Wistar rats = assay: elevated plus maze test 24 hours after ethanol narcosis; format: in vivo, rat; conditions: 250 nM SkQ1 group; p<0.05
Method: FIG. 8 is a graphic representation showing behavior parameters in the elevated plus maze test 24 hours after ethanol narcosis in % to negative control. (*−p<0.05 to intact control);
In these experiments, 6 groups of experimental animals (Wistar rats) were used. (1) The Intact Control group (n=12), had no ethanol narcosis, and were orally administered a normal isotonic 0.9% NaCl solution; (2) the Negative Control group (n=12) was orally administered a normal physiological solution after ethanol narcosis; (3) The SkQ1 50 nM control group (n=12) was orally administered SkQ1 in a concentration 50 nM after ethanol narcosis; (4) The SkQ1 250 nM control group (n=12) was orally administered SkQ1 in a concentration of 250 nM after ethanol narcosis; (5) The SkQ1 1250 nM control group (n=12) was orally administered SkQ1 in a concentration of 1250 nM after ethanol narcosis; (6) the SkQ1 1250 nM intr control group (n=13) was intraperitoneally administered SkQ1 in a concentration of 1250 nM after ethanol narcosis.
Twenty-four hours after ethanol narcosis, elevated plus maze (Treit et al. (1993) Pharmacol. Biochem. Behav. 44:463-9) and Porsolt forced swimming (Petit-Demouliere et al. (2005) Psychopharmacol. (Berl). 177: 245-55) tests were performed. […]

[2] = system: chronically alcoholised rats; assay: open field test of chronically alcoholised rats; format: in vivo, rat; conditions: vs Negative Control
Method: FIG. 9 is a graphic representation showing behavior parameters in the open field test of chronically alcoholised rats in % to intact control. (*−p<0.05; **—p<0.005 to negative control; #—p<0.05, ##—p<0.01, to intact control);
(§1) Male albino rats had free access to a 15% ethanol solution, as well as to food and water. After 6 months of alcoholisation, animals with average consumption more than 11 ml of 15% ethanol solution were divided into two even groups and subjected to the following treatment. The Negative Control group (n=16) (chronically alcoholised rats) were orally administered 1 ml per kg of isotonic 0.9% NaCl solution every two days for 20 days during alcohol deprivation. The SkQ1 group (n=17) (chronically alcoholised rats) were orally administered 1 ml per kg of SkQ1 250 nM solution every two days for 20 days during alcohol deprivation. The Intact Control group (n=10) (animals had no previous contact with ethanol) were orally administered 1 ml per kg of normal physiological solution every two days for 20 days.
(§2) After this course of drug administration, the effect on behavioral parameters was observed using the open field test, the elevated plus maze test, and the Porsolt forced swimming test.
In the open field test, treated animals had increased number of rearing ((p<0.05), number of entrance in central zone (p<0.01), movement time in central zone (p<0.05)) compared to the Negative Control group (FIG. 9. Therefore, SkQ1 increases exploratory activity during alcohol deprivation.

[3] = system: chronically alcoholised rats; assay: Porsolt forced swimming test of chronically alcoholised rats; format: in vivo, rat; conditions: SkQ1 250 nM solution orally every two days for 20 days; p<0.05
Method: FIG. 11 is a graphic representation showing behavior parameters in the Porsolt forced swimming test of chronically alcoholised rats in % to intact control. (*−p<0.05 SKQ-1 to negative control); and
as §1, §2

[4] = system: chronically alcoholised rats; assay: consumption of 15% ethanol solution after deprivation; body weight; format: in vivo, rat
Method: FIG. 12 is a graphic representation showing the consumption of 15% ethanol solution after deprivation in ml (*−p<0.01 on 1st day of alcoholisation SKQ-1 to negative control; #—p<0,05 for average ethanol consumption for 1-36 days SKQ-1 to negative control).
as §1
After behavioral testing, ethanol consumption of 15% solution was measured for 45 days. The level of ethanol consumption during first day in the SkQ1 group was lower (p<0.01) than in the Negative Control group. The decreased ethanol consumption during first day indicates lower level of ethanol craving after SkQ1 administration. […]

## CC1=C(C)C(=O)C(CCCCCCCCCC[P+](c2ccccc2)(c2ccccc2)c2ccccc2)=CC1=O [SkQ1, plastoquinonyl decyltriphenyl-phosphonium]
[1]; administered in vivo to rats prior to extraction of hippocampus, beta-amyloid treatment, FIG. 16
  neuroprotective activity based on LTP signal, model of Alzheimer disease: neuroprotective activity
[1]; in vivo treatment (SkQR1 1 μmol/kg i.p. 24 hours before slices), Aβ added to slices for 15 min
  impairment (decay) of LTP caused by Aβ: prevents decay
Wistar rats
  looking out from closed arms: increased
  number of risk behavior: increased
[2]; 1 ml per kg SkQ1 250 nM solution orally every two days for 20 days during alcohol deprivation, p<0.05
  number of rearing: increased
[2]; SkQ1 250 nM solution orally every two days for 20 days, p<0.01
  number of entrance in central zone: increased
[2]; SkQ1 250 nM solution orally every two days for 20 days, p<0.05
  movement time in central zone: increased
[3]
  immobilization time: less
[4]; p<0.05
  average ethanol consumption during the next month, lower than Negative Control: ~2 ×
[4]; vs Negative Control, p<0.01
  level of ethanol consumption during first day: lower
